pKd: −log10 of the molar value. Where a name gives a salt, the structure may show the parent alone. Read-outs that look alike come from different tables or passages of the source.
Key:
[1] = molecular target: T1, SARS-CoV-2 Main protease (M^pro) (Severe acute respiratory syndrome coronavirus 2, UniProt P0DTD1); experiment: biochemical; format: binding
[2] = molecular target: T1, SARS-CoV-2 Main protease (M^pro); format: binding
SARS-CoV-2 [3] = format: cell-based
SARS-CoV-2 [4] = experiment: Treatment points; format: cell-based; conditions: Vero cells, 48 h
[5] = relative to M^pro alone (53.5 ± 1 °C)
[6] = compound 8, relative to H2–2/8/9
[7] = screen of 156 drugs and natural compounds

C[C@@H]1C[C@H]2[C@@H]3CCC4=CC(=O)C=C[C@]4(C)[C@@]3(F)[C@@H](O)C[C@]2(C)[C@@]1(O)C(=O)CO [Compound 12, Dexamethasone]
Modulation of Tm of M^pro [1, 5]: +2.9 °C
Relative STD saturation, Ha-6 ([2]; compound 12, highest STD integral, reference): 100%
Relative STD saturation, Ha-7 ([2]; compound 12, relative to Ha-6): 58.8%
Relative STD saturation, Hb-6 ([2]; compound 12, relative to Ha-6): 54.8%
Relative STD saturation, Hb-7 ([2]; compound 12, relative to Ha-6): 18.77%
Relative STD saturation, methyl H3–19 ([2]; compound 12, relative to Ha-6): 4.13%
% Reduction in viral plaques (SARS-CoV-2 [3]; 83 μM, Vero cells): 77.27%

CCN(CC)CCCC(C)Nc1ccnc2cc(Cl)ccc12 (centres unmarked) [Compound 11, Chloroquine phosphate]
% Reduction in viral plaques (SARS-CoV-2 [3]; 41.5 μM, Vero cells): 63.2%
% Reduction in viral plaques (SARS-CoV-2 [3]; 83 μM, Vero cells): 100%

CCC(CC)COC(=O)[C@H](C)N[P@](=O)(OC[C@H]1O[C@@](C#N)(c2ccc3c(N)ncnn23)[C@H](O)[C@@H]1O)Oc1ccccc1 [Compound 13, Remdesivir]
Relative STD saturation, H-37 ([2]; compound 13, highest STD integral, reference): 100%
Relative STD saturation, H-18/H-22 ([2]; compound 13, relative to H-37): 64.95%
Relative STD saturation, H-19/H-21 ([2]; compound 13, relative to H-37): 69.88%
Relative STD saturation, H-20 ([2]; compound 13, relative to H-37): 55.82%
Relative STD saturation, H-34 ([2]; compound 13, relative to H-37): 78.86%
Relative STD saturation, H-35 ([2]; compound 13, relative to H-37): 80.79%
% Reduction in viral plaques (SARS-CoV-2 [3]; 83 μM, Vero cells): 81–88%

NC12CC3CC(CC(C3)C1)C2 [Compound 8, Amantadine hydrochloride]
Modulation of Tm of M^pro [1, 5]: +2.9 °C
Relative STD saturation, H2–2, H2–8, H2–9 ([2]; compound 8, highest STD integral, reference): 100%
Relative STD saturation, H2–4, H2–6, H2–10 [2, 6]: 59–64%
Relative STD saturation, H-3, H-5, H-7 [2, 6]: 78%
Interaction with M^pro in STD-NMR spectroscopy [2, 7]: interacting
% Reduction in viral plaques (SARS-CoV-2 [3]; 83 μM, Vero cells): 77.27%

Cc1cccc(Nc2ccccc2C(=O)O)c1C [Compound 2, Mefenamic acid]
pKd [1]: ~4.82
Modulation of Tm of M^pro [1, 5]: +2.9 °C
Relative STD saturation, H3–16 ([2]; compound 2, largest STD integral, reference): 100%
Relative STD saturation, H3–15 ([2]; compound 2, relative to H3–16): 90.7%
Interaction with M^pro in STD-NMR spectroscopy [2, 7]: interacting
% Reduction in viral plaques (SARS-CoV-2 [3]; 83 μM, Vero cells): 81–88%

COc1ccc2c(c1)[C@]13CCCC[C@@H]1[C@H](C2)N(C)CC3 [Compound 9, Dextromethorphan]
Therapeutic Effect, Log10 of Fold Change (SARS-CoV-2 [4]; 83 μM): 2.11
Relative STD saturation, 2H-16 ([2]; compound 9, reference proton): highest saturation
Relative STD saturation, H-6 ([2]; compound 9, relative to 2H-16): 95%
Relative STD saturation, aromatic H-10 ([2]; compound 9, relative to 2H-16): 70.6%
Relative STD saturation, methyl 3H-18 ([2]; compound 9, relative to 2H-16): 30.8%
Relative STD saturation, methyl 3H-20 ([2]; compound 9, relative to 2H-16): 12.8%
Interaction with M^pro in STD-NMR spectroscopy [2, 7]: interacting
% Reduction in viral plaques (SARS-CoV-2 [3]; 83 μM, Vero cells): 81–88%

COc1ccc([C@@H]2Sc3ccccc3N(CCN(C)C)C(=O)[C@@H]2OC(C)=O)cc1 [Compound 1, Diltiazem hydrochloride]
pKd [1]: ~4.36
Therapeutic Effect, Log10 of Fold Change (SARS-CoV-2 [4]; 42.5 μM): 2.00
Therapeutic Effect, Log10 of Fold Change (SARS-CoV-2 [4]; 83 μM): 2.02
Relative STD saturation, C-4 methyl protons (H3–4) ([2]; compound 1, largest STD integral, reference): 100%
Relative STD saturation, H3–28/H3–29 ([2]; compound 1, relative to H3–4): 31.99%
Interaction with M^pro in STD-NMR spectroscopy [2, 7]: interacting
% Reduction in viral plaques (SARS-CoV-2 [3]; 83 μM, Vero cells): 81–88%

Cc1cccc(C)c1OCC(C)N (centres unmarked) [Compound 4, Mexiletine hydrochloride]
pKd [1]: ~4.68
Modulation of Tm of M^pro [1]: +2.9 °C
Interaction with M^pro in STD-NMR spectroscopy [2]: interacting
Relative STD saturation, H-6/H-8 [2]: 86.87%
Relative STD saturation, aromatic H-7 [2]: 100%
Relative STD saturation, methyl H-3 [2]: 20%
% Reduction in viral plaques (SARS-CoV-2 [3]): 75.5%

CC(C(=O)O)c1ccc(-c2ccccc2)c(F)c1 (centres unmarked) [Compound 7, Flurbiprofen]
pKd [1]: ~4.18
Relative STD saturation, methyl H-1 ([2]; compound 7, highest integral, reference): 100%
Relative STD saturation, H-2 ([2]; compound 7, relative to H-1): 44.10%
Interaction with M^pro in STD-NMR spectroscopy [2, 7]: interacting
% Reduction in viral plaques (SARS-CoV-2 [3]; 83 μM, Vero cells): 59.09%

CCCCc1nc(Cl)c(CO)n1Cc1ccc(-c2ccccc2-c2nn[nH]n2)cc1 [Compound 3, Losartan potassium]
pKd [1]: ~4.19
Relative STD saturation, H2–7 ([2]; compound 3, largest STD integral, reference): 100%
Relative STD saturation, H2–8 ([2]; compound 3, relative to H2–7): 45.22%
Relative STD saturation, H2–9 ([2]; compound 3, relative to H2–7): 42.15%
Relative STD saturation, H3–10 ([2]; compound 3, relative to H2–7): 31.49%
Interaction with M^pro in STD-NMR spectroscopy [2, 7]: interacting
% Reduction in viral plaques (SARS-CoV-2 [3]; 83 μM, Vero cells): 54.54%

Source: paper PMC9896891 (International Journal of Biological Macromolecules, 2023)
